From patent publication US20130195926A1, “MODULATION OF NITRIC OXIDE SIGNALING TO NORMALIZE TUMOR VASCULATURE” (The General Hospital Corporation, priority 2007, published 2013)

Experiments:
nNOS = test: Western blot of nNOS knockdown in cultured nNOS shRNA-transfected U87 cells; assay type: cell-based, human
Method: U87MG (American Type Culture Collection HTB-14) and GL261 (generous gift from Dr. G. Yancey Gillespie at University of Alabama) tumor cells were cultured in Dulbecco's Modified Eagle's Medium with 10% fetal bovine serum at 37° C. in a humidified 5% CO2 incubator. The following short-hairpin RNAs (shRNAs) for nNOS were designed using a commercial service program for small interfering RNA (siRNA) target finder (http://www.ambion.com/techlib/misc/siRNA_finder.html): nNOS-shRNA58, CAAAGAGATCGACACCATC (sense), […] (antisense); nNOSshRNA97, CACGCATGTCTGGAAAGGC (sense), […](antisense); nNOS-shRNA150, GGTCTATCCAATGTCCACA (sense), […] (antisense). The DNA oligonucleotides consist of a 19-nucleotide sense siRNA sequence linked to its reverse complementary antisense siRNA sequence by a short spacer (TTCAAGAGA).
Each DNA oligonucleotide was prepared with nucleotide overhangs with BamHI and HindIII restriction sites added to the 5′ and 3′ end of the DNA oligonucleotides and subcloned into the pSilencer 3.1 H-1-hygro (Ambion) that allows transcription of the shRNA. These expression vectors were stably transfected into U87MG cells using LipofectAMINE 2000 (Invitrogen) following the manufacturer's instruction.
The stably transfected cells were selected with 80 μg/ml of hygromycin B. The expression of nNOS protein in U87 tumor cells and tissues was determined by'Western blot analysis. […]
Equal amounts of 60 micrograms of protein per sample were separated on 7.5% SDS polyacrylamide gels, transferred onto polyvinylidene fluoride membrane (Millipore), incubated with primary antibodies followed by secondary antibodies (the same antibodies used in immunohistochemistry studies. See Immunohistochemistry methods below), and detected using enhanced chemiluminescence (GE Healthcare) by exposure on autoradiography films (Kodak) (Xu, L., et al. 2005 Cancer Res. 65, 5711-5719; Canneliet, P., et al. 1998 Nature 394, 485-490; Xu, L., et al. 2002 Journal of Biological Chemistry 277, 11368-11374 (2002); and Xu, L., et al. 2004 Clinical Cancer Research 10, 701-707). […]

U87 tumors [1] = test: Pimonidazole hypoxia staining and vessel density in U87 tumors grown in the hind leg; assay type: in vivo, mice; details: for positive staining for hypoxia (Hypoxyprobe-1 adducts): subcutaneous hind leg tumors ~100 mm3, Rag-1-/- mice; for vessel density: subcutaneous hind leg tumors, compared to U87MG tumors
Method: To evaluate tumor hypoxia, a hypoxia marker pimonidazole was used (Winkler, F., et al. 2004 Cancer Cell 6, 553-563). Briefly, when tumors grown in the hindleg reached about 100 mm^3, 60 mg/kg pimonidazole was injected i.v. into the mice bearing subcutaneous tumors (100 mm^3) 1 hr before perfusion fixation following biotinylated lectin injection. Blood vessels were stained with a Alexa 488-conjugated streptavidin (Vector Laboratory). Pimonidazole-adducts in hypoxic cells were detected using Hypoxyprobe-1 kit (Millipore) stained with tetramethylrhodamine isothiocyanate (TRITC)-conjugated goat antibody to mouse IgG. Cell nuclei were counter-stained by 4,6-diamidino-2-phenylindole (DAPI). Fluorescent images were taken using confocal laser-scanning microscopy, and vessel density and the pimonidazole-positive hypoxic area were determined using NIH image 1.63 macro (Winkler, F., et al. 2004 Cancer Cell 6, 553-563).
The macro identified TRITC-pimonidazole positive area and Alexa 488-positive perfused vessel area and binarized them at the same threshold. The percent of pimonidazole positive area to the total area was determined, and then the number and the perimeters of the binarized vascular areas were quantified on image J software. These parameters were determined in three-five photographic areas from each tumor (630×630 μm^2 each).
The extent of hypoxia was determined in U87MG, U87-shRNA58, and U87-shRNA150 tumors utilizing a redox marker pimonidazole (Hypoxyprobe™-1 Kit, Millipore). To determine the level of hypoxia during a commonly used experimental radiation treatment, tumors were grown to ˜100 mm^3 subcutaneously in the hind leg of Rag-1^−/− mice. […] In nNOS silenced U87-shRNA58 tumors (U87-shRNA58 and U87-shRNA150), most of tumor cells have blood vessels in close proximity, and positive staining for hypoxia was hardly seen (FIG. 9A). In agreement with previous intravital observations in the cranium, increased vessel density was found in U87-shRNA58 and U87-shRNA150 tumors, as compared to U87MG tumors (FIG. 9B-C). Improved vascular morphology and function induced by the selective vascular localization of NO alleviate tumor tissue hypoxia (FIG. 9D). A reduction in hypoxia inducible factor-1α (HIF-1α) protein levels was also observed in the U87-shRNA58 and U87-shRNA150 tumors, as compared to U87MG tumors (FIG. 9E).

U87 tumors [2] = test: Fractionated radiation therapy of U87 tumors grown in the hind leg; assay type: in vivo, mice; details: 3 daily fractions of 8 Gy, compared to irradiated U87MG tumor bearing animals
Method: When tumors grown in the hindleg reached about 100 mm^3, animals were randomly assigned to radiation or control group (day 0). In the radiation groups, tumors were locally irradiated with three daily fractions, 8 Gy each, using a ^137Cs gamma irradiator (Hranitzky, E. B., et al. 1973 Radiology 107, 641-644) at a dose rate of approximately 5 Gy/min. The details of irradiation are described elsewhere (Kozin, S. V., et al. 2001 Cancer Research 61, 39-44). Tumor size was measured with a caliper at least every other day. The time taken for tumor to increase in volume 2×, 3×, 4×, 5×, 6×, and 7× of the initial volume (V0) was determined. Tumor growth delay was calculated as the difference of this parameter between irradiated tumors and nonradiated control tumors of the same genotype. Mice were euthanized when the tumors reached 12 mm in diameter. Survival time of individual animals (spontaneous death or by euthanasia at maximum tumor size) was determined after the start of radiation/control treatment.
The effect of radiation treatment on U87MG, U87-shRNA58 and U87-shRNA150 tumors was determined. Tumors were grown subcutaneously in the hind leg of Rag-1^−/− mice. When tumors reached ˜100 mm^3, they were randomly assigned to control and radiation treatment groups. […] Tumor growth and overall animal survival were monitored. […]

Row | Substance | Knockdown efficiency of nNOS in vitro (nNOS) [%] | positive staining for hypoxia (Hypoxyprobe-1 adducts) (U87 tumors [1]) | vessel density (U87 tumors [1]) | animal survival after radiation treatment (U87 tumors [2])
1 | shRNA150: short-hairpin RNA for nNOS, GGTCTATCCAATGTCCACA (sense), TGTGGACATTGGATAGACCTT (antisense), in pSilencer 3.1 H-1-hygro | 99 | hardly seen | increased | Significant extension
2 | shRNA58: short-hairpin RNA for nNOS, CAAAGAGATCGACACCATC (sense), GATGGTGTCGATCTCTTTGTT (antisense), in pSilencer 3.1 H-1-hygro, stably transfected into U87MG | 99 | hardly seen | increased | Significant extension
